Data from patent US20090181898A1, “ABUSE-RESISTANT A[…]” (SHIRE LLC, priority 2002, published 2009).

Tests used:
[1] = system: rats; assay: Single oral dose toxicity; assay type: in vivo, Sprague Dawley rats; conditions: rat
Description: Three male and three female Sprague Dawley rats per group were given a single oral administration of L-lysine-d-amphetamine at 0.1, 1.0, 10, 60, 100, or 1000 mg/kg (Table 53).
Animals found dead, or sacrificed moribund were necropsied and discarded.

[2] = target: T1, human recombinant norepinephrine transport binding sites (NET) (Homo sapiens, UniProt P23975); assay: Radioligand binding assay, norepinephrine transporter (NovaScreen)
T1 construct: NovaScreen, Hanover, Md; (contract laboratory that ran the assay)
T1 sequence (P23975 whole entry): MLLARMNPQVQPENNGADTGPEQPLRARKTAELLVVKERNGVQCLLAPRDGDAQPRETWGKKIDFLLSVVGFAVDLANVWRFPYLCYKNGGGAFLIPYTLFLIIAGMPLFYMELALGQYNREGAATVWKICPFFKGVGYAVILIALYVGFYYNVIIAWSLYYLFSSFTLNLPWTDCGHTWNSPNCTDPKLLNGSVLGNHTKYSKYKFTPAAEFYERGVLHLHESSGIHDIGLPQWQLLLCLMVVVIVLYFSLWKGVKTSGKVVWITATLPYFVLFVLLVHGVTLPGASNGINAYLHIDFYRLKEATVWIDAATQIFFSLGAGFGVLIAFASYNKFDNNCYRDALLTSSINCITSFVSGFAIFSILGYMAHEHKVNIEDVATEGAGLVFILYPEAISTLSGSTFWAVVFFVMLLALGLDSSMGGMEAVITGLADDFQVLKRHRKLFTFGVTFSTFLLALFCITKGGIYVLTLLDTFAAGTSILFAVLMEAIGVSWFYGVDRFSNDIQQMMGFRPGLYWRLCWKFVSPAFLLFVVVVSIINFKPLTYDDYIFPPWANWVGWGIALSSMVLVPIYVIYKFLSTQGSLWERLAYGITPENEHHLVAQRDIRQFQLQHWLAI

[3] = Kitchen tests: water, acid (vinegar), base (baking powder, baking soda), boiling; assay type: physicochemical; conditions: for free amphetamine released: heated to boiling for 20-60 minutes
Description: “Kitchen tests” were performed in anticipation of attempts by illicit chemists to release free amphetamine from the amphetamine conjugate.

[4] = Stability under acidic conditions; conditions: for d-amphetamine content released: reflux; for d-amphetamine released: acids; for Hydrolysis: reflux in concentrated HCl
[5] = system: children with ADHD; assay: Pediatric crossover efficacy study, SKAMP-Deportment score
[6] = Clinical pharmacokinetics, 25 and 75 mg, compared to Adderall XR and Dexedrine Spansule; conditions: human, in vivo, po; for AUC(0-inf): L-lysine-d-amphetamine intact conjugate AUCinf; for AUC(0-t): L-lysine-d-amphetamine intact conjugate AUClast; for Cmax: L-lysine-d-amphetamine intact conjugate Cmax; for half-life: L-lysine-d-amphetamine intact conjugate T1/2, human; for Tmax: L-lysine-d-amphetamine intact conjugate Tmax
[7] = 25 mg, oral 25 mg L-lysine-d-amphetamine, mean
[8] = 25 mg, oral 25 mg L-lysine-d-amphetamine, individual subjects
[9] = 25 mg, L-lysine-d-amphetamine intact conjugate concentration, oral 25 mg L-lysine-d-amphetamine, individual subjects
[10] = 25 mg, L-lysine-d-amphetamine intact conjugate concentration, oral 25 mg L-lysine-d-amphetamine, mean
[11] = 75 mg, oral 75 mg L-lysine-d-amphetamine, mean

With `CC(Cc1ccccc1)NC(=O)C(N)CCCCN` [L-lysine-d-amphetamine, 2,6-diaminohexanoic acid-(1-methyl-2-phenylethyl)-amide] as the molecule, how does the Mortality ([1]; oral, 1000 mg/kg) read?
The Mortality was “only one death occurred out of a group of six animals”.

And the Lethal oral dose ([1]; single oral administration)?
Its Lethal oral dose is “above 1000 mg/kg”.

What about the inhibition at 10 µM ([2]; 10^−5 mol/L) of the same molecule?
Its inhibition at 10 µM is 13.9%.

And the inhibition at 0.1 µM ([2]; 10^−7 mol/L)?
Its inhibition at 0.1 µM is -11.8%.

And the inhibition at 0.001 µM ([2]; 10^−9 mol/L)?
The inhibition at 0.001 µM was 8.15%.

And the “Specific binding to norepinephrine transport binding sites” value ([2]; 10^−9 to 10^−5 M)?
Its value is “did not bind”.

What about the Activity ([2]; NE Transporter, radioligand [3H]-Nisoxetine, 10^−9 to 10^−5 M) of the same molecule?
The Activity was “No (No activity is defined as producing between −20% and 20% inhibition of radioligand binding (Novascreen).)”.

What about the free amphetamine released ([3]; Baking Powder) of the same molecule?
Its free amphetamine released is 0%.

And the free amphetamine released ([3]; Baking Soda)?
The free amphetamine released was 0%.

What about the free amphetamine released ([3]; Tap Water) of the same molecule?
The free amphetamine released was 0%.

And the free amphetamine released ([3]; Vinegar)?
Its free amphetamine released is 0%.

What about the “Release of free amphetamine in kitchen tests” value ([3]; water, vinegar, baking powder, baking soda, boiling 20-60 minutes) of the same molecule?
The value was “no detectable free amphetamine”.

What about the d-amphetamine content released ([4]; 50% sulfuric acid) of the same molecule?
The d-amphetamine content released was 59%.

What about the d-amphetamine released ([4]; 90° C.) of the same molecule?
The d-amphetamine released was “only a limited amount”.

And the d-amphetamine released ([4]; ambient temperature)?
The d-amphetamine released was “only a limited amount”.

What about the d-amphetamine content released ([4]; concentrated hydrochloric acid) of the same molecule?
Its d-amphetamine content released is 85%.

And the Stability ([4]; reflux in concentrated H2SO4, 2 hours)?
Its Stability is “complete decomposition”.

And the Hydrolysis ([4]; 5 hours)?
Its Hydrolysis is 28%.

And the Hydrolysis ([4]; 22 hours)?
Its Hydrolysis is 76%.

What about the Duration of action ([5]; children 6-12, SKAMP) of the same molecule?
The Duration of action was 12 h.

What about the “Onset of significant effects post morning dose” value ([5]; children 6-12, SKAMP) of the same molecule?
Its value is ≤ 2 h.

What about the “SKAMP-Deportment score compared to placebo” value ([5]; children 6-12, once daily for 1 week each treatment) of the same molecule?
The value was “highly effective compared to placebo”.

And the AUC(0-inf) [6, 7]?
Its AUC(0-inf) is 13.5 ng·h/mL.

What about the AUC(0-t) [6, 7] of the same molecule?
The AUC(0-t) was 11.3 ng·h/mL.

What about the Cmax [6, 7] of the same molecule?
Its Cmax is 11.6 ng/mL.

What about the half-life [6, 8] of the same molecule?
Its half-life is 28.2 min.

What about the half-life [6, 7] of the same molecule?
The half-life was 25.1 min.

What about the Tmax [6, 8] of the same molecule?
The Tmax was 60 min.

What about the Tmax [6, 7] of the same molecule?
Its Tmax is 63 min.

What about the concentration at 0 h [6, 9] of the same molecule?
The concentration at 0 h was 0 ng/mL.

And the concentration at 0 h [6, 10]?
The concentration at 0 h was 0 ng/mL.

And the concentration at 0.5 h ([6]; 25 mg, L-lysine-d-amphetamine intact conjugate concentration, oral 25 mg L-lysine-d-amphetamine, 0.5 h, mean)?
The concentration at 0.5 h was 5.1 ng/mL.

And the concentration at 1 h ([6]; 25 mg, L-lysine-d-amphetamine intact conjugate concentration, oral 25 mg L-lysine-d-amphetamine, 1 h, mean)?
Its concentration at 1 h is 11.2 ng/mL.

And the concentration at 2 h ([6]; 25 mg, L-lysine-d-amphetamine intact conjugate concentration, oral 25 mg L-lysine-d-amphetamine, 2 h, mean)?
Its concentration at 2 h is 2.2 ng/mL.

And the concentration at 3 h [6, 9]?
The concentration at 3 h was 0 ng/mL.

And the concentration at 3 h [6, 10]?
The concentration at 3 h was 0 ng/mL.

And the concentration at 4 h [6, 9]?
Its concentration at 4 h is 0 ng/mL.

And the concentration at 4 h [6, 10]?
The concentration at 4 h was 0 ng/mL.

What about the concentration at 5 h [6, 9] of the same molecule?
The concentration at 5 h was 0 ng/mL.

What about the concentration at 5 h [6, 10] of the same molecule?
The concentration at 5 h was 0 ng/mL.

And the concentration at 6 h [6, 9]?
Its concentration at 6 h is 0 ng/mL.

And the concentration at 6 h [6, 10]?
Its concentration at 6 h is 0 ng/mL.

What about the concentration at 7 h [6, 9] of the same molecule?
Its concentration at 7 h is 0 ng/mL.

What about the concentration at 7 h [6, 10] of the same molecule?
Its concentration at 7 h is 0 ng/mL.

And the concentration at 8 h [6, 9]?
The concentration at 8 h was 0 ng/mL.

What about the concentration at 8 h [6, 10] of the same molecule?
The concentration at 8 h was 0 ng/mL.

And the concentration at 10 h [6, 9]?
The concentration at 10 h was 0 ng/mL.

What about the concentration at 10 h [6, 10] of the same molecule?
Its concentration at 10 h is 0 ng/mL.

And the concentration at 12 h [6, 9]?
Its concentration at 12 h is 0 ng/mL.

And the concentration at 12 h [6, 10]?
The concentration at 12 h was 0 ng/mL.

And the concentration at 16 h [6, 9]?
Its concentration at 16 h is 0 ng/mL.

What about the concentration at 16 h [6, 10] of the same molecule?
The concentration at 16 h was 0 ng/mL.

And the concentration at 24 h [6, 9]?
Its concentration at 24 h is 0 ng/mL.

And the concentration at 24 h [6, 10]?
Its concentration at 24 h is 0 ng/mL.

What about the concentration at 48 h [6, 9] of the same molecule?
Its concentration at 48 h is 0 ng/mL.

And the concentration at 48 h [6, 10]?
The concentration at 48 h was 0 ng/mL.

And the concentration at 72 h [6, 9]?
Its concentration at 72 h is 0 ng/mL.

What about the concentration at 72 h [6, 10] of the same molecule?
The concentration at 72 h was 0 ng/mL.

What about the AUC(0-inf) [6, 11] of the same molecule?
Its AUC(0-inf) is 59.5 ng·h/mL.

And the AUC(0-t) [6, 11]?
The AUC(0-t) was 58.1 ng·h/mL.

And the Cmax [6, 11]?
The Cmax was 53.6 ng/mL.
